Values quoted from earlier work in US6114314A (priority 1994, dated 2000).

What was measured:
macrophages = settings: tissue culture
experiment neoplasm = settings: with Interleukin 2
[1] = in cross-linked hyaluronic acid gel
rabbit eye = settings: in vivo

Compound | malfunction of macrophages (block due to excessive prostaglandin) (macrophages) | also measured
CC(=O)Oc1ccccc1C(=O)O [ASA, acetylsalicylic acid] | can be altered | 
COc1ccc2c(c1)c(CC(=O)O)c(C)n2C(=O)c1ccc(Cl)cc1 [indomethacin] | can be altered | cure of experiment neoplasm (experiment neoplasm): could effect a cure
COc1ccc2cc([C@H](C)C(=O)O)ccc2c1 [naproxen] | can be altered | 
heparin |  | antithrombogenic activity [1]: retained its antithrombogenic activity
sodium hyaluronate [sodium hyaluronate (LifeCore)] |  | Biological Safety Testing, Rabbit Ocular Toxicity Test (rabbit eye): Passes
